Assay results from PubChem BioAssay AID1963862 (Molecular Pharmacology Branch, DTP, NCI, 2024).

Tested on: KRAS patient-derived spheroids with HUVEC/MSC, viability
Assay: Anticancer human tumor 941728-121-R-J1-PDC patient-derived lung adenocarcinoma cell line growth inhibition [KRAS2]
Settings: for IC50: curve of first compound; for viability, T/C: stronger effect = lower value
From the text: Multicellular complex tumor spheroid response to RAS pathway inhibitors in combination with a targeted agents in patient-derived cell lines with oncogenic KRAS variants from multiple cancer types
A high-throughput screen of multi-cell type tumor spheroids was designed to identify active combinations of targeted small molecules and KRAS pathway inhibitors. Complex spheroids include a stromal component modeled by human endothelial cells (HUVEC) and fibroblasts modeled by human mesenchymal stem cells (MSCs). The concentration ranges selected for each drug and investigational agent were based upon clinically achievable concentrations if the clinical Cmax of the agent was known.
Compounds. The drugs and investigational agents: BI-3406 (NSC825286), BAY-293 (NSC824723), batoprotafib (TNO155; NSC825523), sotorasib (AMG 510; NSC818433), MRTX1257 (NSC819558), elimusertib (BAY 1895344; NSC800525), molibresib (GSK525762; NSC774829), temuterkib (LY3214996; NSC803410), venetoclax (NSC766270), alisertib (NSC759677), olaparib (NSC753686), talazoparib (NSC767125), erdafitinib (NSC781556), ipatasertib (NSC767898), cabozantinib (NSC761068), nintedanib (NSC756659), abemaciclib (NSC768073), docetaxel (NSC628503), trametinib (NSC758246), and sapanisertib (NSC764658) were obtained from the National Cancer Institute (NCI) Developmental Therapeutics Program Chemical Repository. The FDA-approved anticancer drug set is available from the Developmental Therapeutics Program. […] The stock solutions were prepared in dimethyl sulfoxide (DMSO, Sigma-Aldrich, St. Louis, MO, cat. D2650) at 800-fold the tested concentration and stored at -70 degrees C prior to their use. All drugs and investigational agents were tested over a range starting from a high concentration at or near the clinical Cmax and decreasing in half-log increments. If the clinical Cmax for an agent had not been determined, the highest concentration tested was 10 microM.
Cell Culture. All cells were maintained in an incubator at 37 degrees C and 5% CO2 with 95% humidity. The PDC lines were cultured according to standard operating procedures established by the NCI PDMR (https://pdmr.cancer.gov/sops/default.htm). Briefly, all PDCs were thawed and cultured in Matrigel-coated flasks prepared with a working solution of 1X Ham's F-12 nutrient mix, without supplementation (Invitrogen, Waltham, MA, cat. 11765054), 100 U/mL penicillin-streptomycin (Invitrogen, cat. 15140122), and 2.5% Matrigel (Corning Inc., Corning, NY, cat. 354248) for the first three passages. All PDCs were cultured in complete DMEM/F-12 media containing advanced DMEM/F-12 (Invitrogen, cat. 12634028), 4.9% defined fetal bovine serum, heat inactivated (HyClone Laboratories Inc., Logan, UT, cat. SH30070.03HI), 389 ng/mL hydrocortisone (Sigma-Aldrich, cat. H4001), 9.7 ng/mL human EGF recombinant protein (Invitrogen, cat. PHG0313), 23.4 microg/mL adenine (Sigma-Aldrich, cat. A2786), 97.3 U/mL penicillin-streptomycin (Invitrogen, cat. 15140122), 1.9 mM L-glutamine (Invitrogen, cat. 25030081), and 9.7 microM Y-27632 dihydrochloride (Tocris Bioscience, Bristol, United Kingdom, cat. 1254). The PDCs were cultured in complete DMEM/F12 media without 9.7 microM Y-27632 dihydrochloride for at least two passages prior to the screen. The established cell line HOP-62 was cultured in RPMI 1640 medium, HEPES (Invitrogen, cat. 22400105) with 10% defined fetal bovine serum (HyClone Laboratories Inc., cat. SH30070.03) and 2 mM L-glutamine (Invitrogen, cat. 25030081). The pooled donor HUVEC were cultured in endothelial cell growth medium 2 (PromoCell, Heidelberg, Germany, cat. C-22011) and the hMSC were cultured in mesenchymal stem cell growth medium 2 (PromoCell, cat. C-28009). For all experiments, HUVEC and hMSC were used at passages </=5, while the malignant cell lines were used at passages </=15. […]

[1] = second compound 0.1 µM, first compound 0.000316 µM
[2] = second compound 0.1 µM, first compound 0.001 µM
[3] = second compound 0.1 µM, first compound 0.00316 µM
[4] = second compound 0.1 µM, first compound 0.01 µM
[5] = second compound 0.1 µM, first compound 0.0316 µM
[6] = second compound 0.1 µM, first compound 0.1 µM
[7] = second compound 0.316 µM, first compound 0.000316 µM
[8] = second compound 0.316 µM, first compound 0.001 µM
[9] = second compound 0.316 µM, first compound 0.00316 µM
[10] = second compound 0.316 µM, first compound 0.01 µM
[11] = second compound 0.316 µM, first compound 0.0316 µM
[12] = second compound 0.316 µM, first compound 0.1 µM
[13] = second compound 1 µM, first compound 0.000316 µM
[14] = second compound 1 µM, first compound 0.001 µM
[15] = second compound 1 µM, first compound 0.00316 µM
[16] = second compound 1 µM, first compound 0.01 µM
[17] = second compound 1 µM, first compound 0.0316 µM
[18] = second compound 1 µM, first compound 0.1 µM
[19] = second compound 3.16 µM, first compound 0.000316 µM
[20] = second compound 3.16 µM, first compound 0.001 µM
[21] = second compound 3.16 µM, first compound 0.00316 µM
[22] = second compound 3.16 µM, first compound 0.01 µM
[23] = second compound 3.16 µM, first compound 0.0316 µM
[24] = second compound 3.16 µM, first compound 0.1 µM
[25] = second compound 10 µM, first compound 0.000316 µM
[26] = second compound 10 µM, first compound 0.001 µM
[27] = second compound 10 µM, first compound 0.00316 µM
[28] = second compound 10 µM, first compound 0.01 µM
[29] = second compound 10 µM, first compound 0.0316 µM
[30] = second compound 10 µM, first compound 0.1 µM
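Further: spheroids exposed to agents for seven days before readout.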

Row | SMILES | IC50 (second compound 0.1 µM) [nM] | IC50 (second compound 0.316 µM) [nM] | IC50 (second compound 1 µM) [nM] | IC50 (second compound 3.16 µM) [nM] | IC50 (second compound 10 µM) [nM] | viability, T/C [1] [%] | viability, T/C [2] [%] | viability, T/C [3] [%] | viability, T/C [4] [%] | viability, T/C [5] [%] | viability, T/C [6] [%] | viability, T/C [7] [%] | viability, T/C [8] [%] | viability, T/C [9] [%] | viability, T/C [10] [%] | viability, T/C [11] [%] | viability, T/C [12] [%] | viability, T/C [13] [%] | viability, T/C [14] [%] | viability, T/C [15] [%] | also measured
1 | CC(C)n1nc(-c2ccc3oc(N)nc3c2)c2c(N)ncnc21 + CNCc1ccccc1-c1csc(C(C)Nc2nc(C)nc3cc(OC)c(OC)cc23)c1 | 0.668 | < 0.316 | < 0.316 | < 0.316 | < 0.316 | 49 | 59.2 | 37.3 | 34.3 | 34.5 | 31.4 | 44.7 | 45.2 | 35.9 | 23.1 | 24.1 | 16.6 | 34.8 | 29.3 | 15.9 | viability, T/C [16]: 13.6%; viability, T/C [17]: 11%; viability, T/C [18]: 7.65%; viability, T/C [19]: 0.15%; viability, T/C [20]: 0.16%; viability, T/C [21]: 0.1%; viability, T/C [22]: 0.11%; viability, T/C [23]: 0.08%; viability, T/C [24]: 0.13%; viability, T/C [25]: 0.58%; viability, T/C [26]: 0.43%; viability, T/C [27]: 2.78%; viability, T/C [28]: 0.67%; viability, T/C [29]: 0.67%; viability, T/C [30]: 0.72%
2 | CN(C)C/C=C/C(=O)Nc1cc2c(Nc3ccc(F)c(Cl)c3)ncnc2cc1O[C@H]1CCOC1 + CNCc1ccccc1-c1csc(C(C)Nc2nc(C)nc3cc(OC)c(OC)cc23)c1 | < 0.316 | < 0.316 | < 0.316 | < 0.316 | < 0.316 | 44 | 45.9 | 36.2 | 34.6 | 31.6 | 35.6 | 32.6 | 24.5 | 28.5 | 23.8 | 25.6 | 29.9 | 20.5 | 19.6 | 18.5 | viability, T/C [16]: 19.6%; viability, T/C [17]: 20.6%; viability, T/C [18]: 19.4%; viability, T/C [19]: 0.61%; viability, T/C [20]: 0.24%; viability, T/C [21]: 0.15%; viability, T/C [22]: 0.14%; viability, T/C [23]: 0.13%; viability, T/C [24]: 0.18%; viability, T/C [25]: 0.05%; viability, T/C [26]: 0.04%; viability, T/C [27]: 0.04%; viability, T/C [28]: 0.08%; viability, T/C [29]: 0.04%; viability, T/C [30]: 0.32%
3 | Cn1ncnc1[C@H]1c2n[nH]c(=O)c3cc(F)cc(c23)N[C@@H]1c1ccc(F)cc1 + CC1OCC2(CCN(c3cnc(Sc4ccnc(N)c4Cl)c(N)n3)CC2)C1N | 0.334 | < 0.316 | < 0.316 | < 0.316 | < 0.316 | 49.5 | 50 | 43.2 | 44.7 | 44.2 | 46.5 | 37.7 | 28.5 | 26.1 | 32.7 | 28.1 | 28.1 | 28.7 | 25.9 | 22.2 | viability, T/C [16]: 20.6%; viability, T/C [17]: 19.2%; viability, T/C [18]: 26.4%; viability, T/C [19]: 26.6%; viability, T/C [20]: 24.8%; viability, T/C [21]: 25.3%; viability, T/C [22]: 20%; viability, T/C [23]: 14.4%; viability, T/C [24]: 19.3%; viability, T/C [25]: 23.8%; viability, T/C [26]: 21.5%; viability, T/C [27]: 19.9%; viability, T/C [28]: 18.9%; viability, T/C [29]: 18.3%; viability, T/C [30]: 14.7%
